pKd: −log10 of the molar value. Entries after “also recorded” stand apart in the source; their conditions may differ.

Data on nine molecules can be found in US6750008B1, “Methods and compositions for inhibition of membrane fusion-associated events, including HIV transmission” (priority 1999, dated 2004).

For one data set, the system named is RSV. The data set can be described thus: Anti-RSV antiviral activity assay (syncytial formation, Hep-2 cells). The class given is cell-based, respiratory syncytial virus. Conditions: purified peptides. As for the experimental part: The assay utilized herein tested the ability of the peptides to disrupt the ability of HEp2 cells acutely infected with RSV (i.e., cells which are infected with a multiplicity of infection of greater than 2) to fuse and cause syncytial formation on a monolayer of uninfected an uninfected line of Hep-2 cells. The lower the observed level of fusion, the greater the antiviral activity of the peptide was determined to be. […]
After incubation, cells in control wells were checked for fusion centers, media was removed from the wells, followed by addition, to each well, of either Crystal Violet stain or XTT. […] The number of syncytia per well were then counted, using a dissecting microscope.
With respect to XTT (2,3-bis[2-Methoxy-4-nitro-5-sulfophenyl]-2H-tetrazolium-5-carboxyanilide inner salt), 50 μl XTT (1 mg/ml in RPMI buffered with 100 mM HEPES, pH 7.2-7.4, plus 5% DMSO) were added to each well. The OD450/690 was measured (after blanking against growth medium without cells or reagents, and against reagents) according to standard procedures. […]

The target of data set [1] is viral gp41 of HIV-1 (on virions and HIV-1 infected cells) (HIV-1) (UniProt P03377). The experiment in a line: cell-based or functional assay.
In data set [2] the test system is HIV-1LAI virus. The experiment in a line: Cell fusion assay (HIV-1 induced syncytia formation). It counts as cell-based. The text has this: The results of several such experiments are presented herein.
Data set [3] has as its system HIV-1LAI virus. Conditions: FIG. 1 legend. Here is the method:
Synthetic peptides were incubated at 37° C. with either 247 TCID50 (for experiment depicted in FIG. 2), or 62 TCID50 (for experiment depicted in FIG. 3) units of HIV-1LAI virus or 25 TCID50 units of HIV-2NIHZ and CEM CD4^+ cells at peptide concentrations of 0, 0.04, 0.4, 4.0, and 40 μg/ml for 7 days. The resulting reverse transcriptase (RT) activity in counts per minute was determined using the assay described, below, in Section 6.1.5. See Reed, L. J. et al., 1938, Am. J. Hyg. 27: 493-497 for an explanation of TCID50 calculations.
The micro-reverse transcriptase (RT) assay was adapted from Goff et al. (Goff, S. et al., 1981, J. Virol. 38:239-248) and Willey et al. (Willey, R. et al., 1988, J. Virol. 62:139-147). Supernatants from virus/cell cultures are adjusted to 1% Triton-X100. A 10 μl sample of supernatant was added to 50 μl of RT cocktail in a 96-well U-bottom microtitre plate and the samples incubated at 37° C. for 90 min. The RT cocktail contained 75 mM KCl, 2 mM dithiothreitol, 5 mM MgCl2, 5 μg/ml poly A (Pharmacia, cat. No. 27-4110-01), 0.25 units/ml oligo dT (Pharmacia, cat. No. 27-7858-01), 0.05% NP40, 50 mM Tris-HCl, pH 7.8, 0.5 μM non-radioactive dTTP, and 10 μCi/ml ^32P-dTTP (Amersham, cat. No. PB.10167).
After the incubation period, 40 μl of reaction mixture was applied to a Schleicher and Schuell (S+S) NA45 membrane (or DE81 paper) saturated in 2×SSC buffer (0.3M NaCl and 0.003M sodium citrate) held in a S+S Minifold over one sheet of GB003 (S+S) filter paper, with partial vacuum applied. Each well of the minifold was washed four times with 200 μl 2×SSC, under full vacuum. The membrane was removed from the minifold and washed 2 more times in a pyrex dish with an excess of 2×SSC. Finally, the membrane was drained on absorbent paper, placed on Whatman #3 paper, covered with Saran wrap, and exposed to film overnight at −70° C.
DP178 (SEQ ID:1) was next tested for its ability to block CD-4^+ CEM cell infection by cell free HIV-1 virus. […]

The test system of a further data set is CEM cells. The data set can be described thus: Cell proliferation and toxicity assay. As to conditions: 3 days, highest concentration tested 40 μg/ml. The class given is cell-based. Here is the method: Cell proliferation and toxicity assay: Approximately 3.8×10^5 CEM cells for each peptide concentration were incubated for 3 days at 37° C. in T25 flasks. Peptides tested were DP178 (SEQ ID:1) and DP-116 (SEQ ID:9), as described in FIG. 1. Peptides were synthesized as described, above, in Section 6.1. The concentrations of each peptide used were 0, 2.5, 10, and 40 μg/ml. Cell counts were taken at incubation times of 0, 24, 48, and 72 hours.

For data set [4], the target named is T1, DP107-like domain of the RSV F1 protein (Human respiratory syncytial virus A, UniProt P03420).
T1 construct: made in house
T1 sequence (P03420 142-302): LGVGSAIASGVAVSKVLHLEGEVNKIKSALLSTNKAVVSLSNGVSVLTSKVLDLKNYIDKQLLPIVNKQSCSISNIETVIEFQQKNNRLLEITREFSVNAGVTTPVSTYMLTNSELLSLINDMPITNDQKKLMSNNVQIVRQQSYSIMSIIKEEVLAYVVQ
It counts as binding. Here is the method:
After incubation and washing, unbound Fab-d is removed from the plates and bound Fab-d is quantitated. A no-inhibitor control should also be conducted.
Such an assay takes advantages of accepted radioligand and receptor binding principles.
Specifically, the DNA sequence corresponding amino acid residues 142-302 of the RSV F1 protein was amplified by PCR and cloned into the Xmn I site of the expression vector pMal-p2 (New England Biolab) to give MF5.1. These amino acid residues correspond to the extracellular domain of the RSV F1 protein including its DP107 region but excluding the DP178 region.
Cell fusion assays were performed with each of the peptides as described in Section 17 above. The binding affinity of each peptide was also measured in a competitive binding assay described in Section 5.6.1 above, wherein the concentration of each peptide necessary to bind to the M5.1 fusion protein (i.e., the B50 value), and thereby disrupt binding of biotin labeled T112 (T888) to the fusion protein, was measured.

`CC[C@H](C)[C@H](NC(=O)[C@H](Cc1ccccc1)NC(=O)[C@H](C)NC(=O)[C@H](CC(C)C)NC(=O)[C@H](CO)NC(=O)[C@H](CCC(N)=O)NC(=O)[C@H](CC(N)=O)NC(=O)[C@@H](NC(=O)[C@H](CCCCN)NC(=O)[C@H](CCC(=O)O)NC(=O)[C@H](CC(N)=O)NC(=O)[C@@H](NC(=O)[C@H](CCC(N)=O)NC(=O)[C@H](CO)NC(=O)[C@@H](NC(=O)[C@H](CO)NC(=O)[C@H](C)NC(=O)[C@H](CC(=O)O)NC(=O)[C@H](Cc1ccccc1)NC(=O)[C@H](CCC(=O)O)NC(=O)[C@H](CC(=O)O)NC(=O)[C@H](CO)NC(=O)[C@@H]1CCCN1C(=O)[C@H](Cc1ccccc1)NC(=O)[C@@H](NC(C)=O)C(C)C)[C@@H](C)CC)C(C)C)[C@@H](C)CC)C(=O)N[C@@H](CCCNC(=N)N)C(=O)N[C@@H](CCCCN)C(=O)N[C@@H](CO)C(=O)N[C@@H](CC(=O)O)C(=O)N[C@@H](CCC(=O)O)C(=O)N[C@@H](CC(C)C)C(=O)N[C@@H](CC(C)C)C(=O)N[C@@H](Cc1c[nH]cn1)C(=O)N[C@@H](CC(N)=O)C(=O)N[C@H](C(N)=O)C(C)C` [T112]: in the data set on RSV, the “anti-RSV antiviral activity” value is reported as “substantial antiviral activity”.

As for M41-P (from UniProt P03377 540-686), in data set [1], the Cell fusion (IC90) is 0.083 µM and the HIV infectivity (IC90) amounted to 0.066 µM.

“H-YTNTIYTLLEESQNQQEKNEQELLELDKWASLWNWF-OH [DP-185]”: in the data set on HIV-1LAI virus [2], the “block of HIV-1-mediated syncytia formation” value is given as “block HIV-1-mediated syncytia formation”. In addition, the “inhibitory activity on HIV-1-induced syncytia formation, lowest concentration tested” value in the data set on HIV-1LAI virus [2] (FIG. 4) was no more than 312.5 ng/mL.

In data set [1], M41-PΔ178 (from UniProt P03377 540-642) yielded a Cell fusion (IC90) greater than 50 µM and an HIV infectivity (IC90) greater than 8 µM.

As for “Ac-LQARILAVERYLKDQQQ-NH2 [DP-116, reference compound]”, the “inhibition of HIV-1 cell free virus infection” value in the data set with HIV-1LAI virus [3] was “negative for inhibition of HIV-1 infection”.

Turning to enfuvirtide, the “cytotoxic effects on cells in culture” value in the data set with CEM cells is listed as “non-cytotoxic; also recorded: no cytotoxic effects”.

On to “M41 (maltose binding fusion protein of the gp41 ectodomain) (from UniProt P0AEX9 27-392; P03377 540-686)”, for which, in data set [1], the Cell fusion (IC90) was greater than 50 µM and the HIV infectivity (IC90) is greater than 16 µM.

For the molecule “DP-180: control peptide incorporating the amino acid residues of DP178 in a scrambled sequence (NNLLRAIEAQQHLLQLTVW; Core polypeptide) [reference compound]”, the anti-fusogenic activity entry in the data set with HIV-1LAI virus [2] (at 40 μg/ml) is reported as “no evidence of anti-fusogenic activity”.

In the case of “Ac-VYPSDEFDASISQVNEKINQALAYIRKADELLHNV-NH2 [T786]”, the “binding affinity relative to T112” value in data set [4] was “approximately ten-fold less”. Also, the pKd in data set [4] (B50, competition with biotin labeled T112 (T888), read-out: binding affinity) was 7.72.
